In patent publication US20020055130A1, “Method and product for regulating apoptosis” (National Jewish Center for Immunology and Respiratory …, priority 1997, published 2002):

Tests used:
L929 cells = assay: TNFα-mediated apoptosis of L929 cells (neutral red assay, propidium iodide staining); format: cell-based, murine; conditions: for effect on TNFα-mediated cell death / apoptosis / effect on the protective action of bFGF against TNFα-mediated cell death: L929 cells
Procedure: Cell lines and culture. L929 cells (ATCC CCL1 were maintained in Dulbecco's modified Eagle's medium with 5% newborn claf serum and 5% bovine calf serum (BCS) supplemented with 100 ug/ml streptomycin and 100U/ml penicillin. The cells were grown in 10 cm dishes at 37° C. in 7.5% CO2. Cells were made quiescent where indicated by incubation in Dulbecco's modified Eagle's medium and 0.1% bovine serum albumin for 24 h. Recombinant murine TNFα and recombinant humanbFGF (147aa) were from R&D Systems, Minneapolis, Minn. Cells were pretreated where indicated with the MEK-1 inhibitor PD#098059 (Parke-Davis Pharmaceutical Corp. Ann Arbor, Mich.) for 1 h at 37° C. Cells were stimulated by incubation with the indicated cytokine or growth factor for various times at 37° C. […] Stimulation was stopped by rinsing the plates twice with ice cold phosphate buffered saline (PBS) and lysing the cells in the appropriate lysis buffer. Cells were scraped from the plates and nuclei were pelleted for 10 min at 14,000 RPM in a microcentrifuge.
Neutral Red Assay Uptake of the dye neutral red was used as one measure of cell viability following cytokine or growth factor treatment (Finter, N. B. (1969) J. Gen Virol. 5:419-427). 1.5×10^4-2.5×10^5 L929 cells/well were plated in 12 well tissue culture dishes in 1.25 ml of media. Cells were treated for 15-20 hr with various concentrations of TNFα and/or bFGF. 2.5 μl of 1% neutral red was added to the wells and incubated for 2 hr at 37° C. PBS. The neutral red was extracted with 1.0 ml of 50% ethanol, 50 mM Na-citrate pH 4.2 and absorbency was measured at […].
Propidium iodide staining Cells were plated on glass chamber slides (Nunc, Naperville, Ill.) at a concentration of 0.2-0.6×10^5 cells/ml. Ras expression was induced with 5 mM IPTG in Dulbecco's modified Eagle's medium with 0.1% BCS for 8-12 hr. Cells were exposed to TNFα (5 ng/ml) and/or bFGF (500 pg/ml) in Dulbecco's modified Eagle's medium with 0.1% BCS for 16 hr. The parental LACI expressing cell line (see below) was used as a control. Cells were washed twice in PBS, fixed in acetone:methanol (1:1) −20° C. for 5 min, air dried, washed twice in PBS, stained with 1 μg/ml propidium iodide (PI) in PBS for 20 min, washed in PBS, washed in H2O and mounted in 25% glycerol/PBS. PI fluorescence was observed using a Nikon inverted microscope equipped with epifluorescence and a […] filter. Images were analyzed using IP lab.

JNK = JNK assay (solid state kinase assay with GST-Jun), L929 cells; format: cell-based, murine; conditions: for effect on JNK activity: bFGF 2.5 ng/ml, PD #098059 pretreatment; for effect on TNFα stimulation of JNK: co-stimulation or IPTG-induced Ras expression
Procedure: JNK assay. JNK activity was measured using a solid state kinase assay in which glutathione S-transferase-c-Jun(1-79) (GST-JUN) cound to glutathione-Sepharose 4B beads was used to affinity pruify JNK and then JNK activity was measured in an in vitro kinase assay using the sepharose bound GST-Jun as a substrate (Hibi, M., et al. (1993) Genes & Development 7:2135-2148). Stimulated or unstimulated cells were lysed in 0.5% Nonidet P-40, 20 mM HEPES pH 7.2, 100 mM NaCl, 2 mM dithiothreitol, lmM EDTA, 1.0 mM phenylmethylsulfonylfluoride, 1 μg/ml aprotinin and the nuclei pelleted. Lysates were normalized for protein content. […] Binding to GST-Jun efficiently isolates the two major forms of JNK (p45and p55) and under the conditions used JNK isolation was linear for 10-250 μg of cell lysate. The lysates were rotated at 4° C. for 1-3 h. Beads were washed twice in lysis buffer and then twice in PAN (10 mM PIPES, pH 7.0, 100 mM NaCl, 21 μg/ml aprotinin). Kinase reactions were carried out at 30° C. for 15 min in 20 mM Hepes pH 7.2, 20 mM β-glycerophosphate, 10 mMp-nitrophenyl phosphate, 10 mM MgCl2, 1 mM dithiothreitol, 50 μm sodium vanadate, 10 μCi γ^32P-ATP 4300 Ci/mmole. The kinase reaction was linear from 0-30 min.

p42/p44 MAPK = assay: MAPK assay (EGFR662-681 peptide), L929 cells; format: cell-based, murine
Procedure: MAPK Assay MAPK activity was measured exactly as described previously (Gardner, A. M., et al. (1994) Meth. Enzymol. 238:258-270) with the exception that MonoQ FPLC fractionation was replaced by step elution from a DEAE-Sephacel column using 0.5 M NaCl in loading buffer. The eluate was assayed in triplicate using the epidermal growth factor receptor 662-681 peptide (EGFR662-681) as a selective substrate for MAPK activity (Heasley, L. E., et al. (1994) American Journal of Physiology (Renal Fluid Electrolyte Physiol. 36) 267:F366-F373).

endogenous MEKK1 protein = assay: Cleavage of endogenous MEKK1 after genotoxic stress stimuli (immunoblot); format: cell-based, Human; conditions: HEK293 cells
Procedure: 200-400 μg cell lysate protein was subjected to SDS-9% PAGE and transferred to nitrocellulose membranes. Blots were performed exactly as described (Widmann et al., 1995). To detect HA-tagged proteins, the mouse monoclonal antibody 12CA5 (Babco) was used as the primary antibody, followed by a rabbit anti-mouse antibody (Cappel). HRP-conjugated protein A at a 1/5000 dilution (Zymed) and ^125I-protein A at a 1/500 dilution (Dupont NEN) were then used for enhanced chemiluminescence (ECL) detection and for quantification using the phosphorimager. To detect MEKK1, 3 different ploclonal antisera were used as primary antibodies, followed by ECL detection using HRP-protein A (see above). These sera were generated by injecting rabbits with GST proteins fused with different portions of the MEKK1 protein.
Several genotoxic stress stimuli were applied to HEK293 cells and their effect on the MEKK1 protein was assessed.

Raf-B = Raf-B immunoprecipitate in vitro kinase assay, EGF treated PC12 cells; format: cell-based; conditions: EGF 30 ng/ml timecourse
Procedure: (§1) Reactions were stopped by the addition of 2× SDS sample buffer (20 μl). The samples were boiled for 3 minutes and subjected to SDS-PAGE and autoradiography. Raf-B was immunoprecipitated from the same untreated and treated PC 12 cell lysates as above with an antiserum to a COOH-terminal peptide of Raf-B (Santa Cruz Biotechnology, Inc.) and assayed similarly. Raf-1 was immunoprecipitated with an antiserum to the 12 COOH-terminal amino acids of Raf-1 (Santa Cruz Biotechnology, Inc.).

MEKK1 = MEKK1 immunoprecipitate in vitro kinase assay (MEK-1 phosphorylation), growth factor treated PC12 cells; format: cell-based; conditions: for MEKK1 activity: serum starved PC12 cells, EGF 30 ng/ml or NGF 100 ng/ml, 5 minutes
c-Raf-1 = assay: Raf-1 immunoprecipitate in vitro kinase assay, growth factor treated PC12 cells; format: cell-based; conditions: in comparison to MEKK1 or Raf-B
Procedure: as §1

C-Raf = assay: Raf activation assay (kinase-inactive MEK-1 phosphorylation), L929 cells; format: cell-based, murine
Procedure: (§2) RafActivation Assay Cells were serum starved and challenged in the presence or absence of the appropriate cytokine or growth factors, as described above. Cells were lysed by scraping in ice cold RIPA buffer (50 mM Tris-HCl, pH 7.2, 150 mM NaCl, 0.1% SDS, 0.5% sodium deoxycholate, 1.0% Triton X-100, 10 mM sodium pyrophosphate, 25 mM β-glycerophosphate, 2 mM sodium vanadate, 2.1 µg/ml aprotinin) and the nuclei were pelletted. The supernatants were normalized for protein content and precleared with protein A Sepharose prior to immunoprecipitation with rabbit antiserum to the C terminus of C-Raf, rabbit anti-serum to A-Raf or rabbit antiserum to B-Raf (Santa Cruz Biotech., Santa Cruz, Calif.) and protein A Sepharose for 2-3 hr at 4° C. The beads were washed twice with ice cold RIPA and twice with PAN. A third of the immunoprecipitate was diluted with SDS sample buffer and used for immunoblot analysis. […] Wild-type recombinant MEK-1 was autophosphorylated in parallel as a marker. Reactions were terminated by the addition of 12.5 μl 5× SDS sample buffer, boiled, and subjected to SDS-PAGE and autoradiography.

B-Raf = assay: as above; format: cell-based, murine
Procedure: as §2

[1] = test system: Swiss 3T3 cells and REF52 cells; assay: Beauvericin-induced apoptosis (anti-tubulin and propidium iodide staining); format: cell-based; conditions: 50 μM, 6 hours, 37° C.
Procedure: A first group of transfected Swiss 3T3 cells and REF52 cells were treated with 50 μM beauvericin for 6 hours at 37° C. Beauvericin is a compound known to induce apoptosis in mammalian cells. A second group of cells were treated with a control buffer lacking beauvericin. The treated cells were then fixed in parafornaldehyde and permeabilized with saponin using protocols standard in the art. The permeabilized cells were then labelled by incubating the cells with a fluorescein-labelled anti-tubulin antibody (1:500; obtained from GIBCO, Gaithersburg, Md.) to detect cytoplasmic shrinkage or 10 μM propidium iodide (obtained from Sigma, St. Louis, Mo.) to stain DNA to detect nuclear condensation. The labelled cells were then viewed by differential fluorescent imaging using a Nikon Diaphot fluorescent microscope.

Swiss 3T3 cells = assay: Quantitation of MEKKCOOH-induced cell death after nuclear microinjection; format: cell-based
Procedure: Swiss 3T3 and REF52 cells were plated on acid-washed glass cover slips in Dulbecco's Modified Eagle's Medium (DMEM) and 10% bovine calf serum (BCS) or newborn calf serum (NCS). Cells were placed in DMEM/0.1% calf serum for overnight incubation prior to microinjection and used for injection at 50-70% confluence. Injections were performed with an Eppendorf automated microinjection system with needles pulled from glass capillaries on a vertical pipette puller (Kopf, Tujunga, Calif.). Cells were injected with pCMVβ-gal in the presence or absence of pCMV5MEKKCOOH or pCMV5BxBRaf at 20-100 ng/μl for each expression plasmid in 100 mM KC1, 5 mM NaPO4, pH 7.3. […] Similar results were obtained when cells were placed in 10% NCS after microinjection. Propidium iodide (5 pg/ml) was used to stain DNA. X-Gal reactions were performed for six hr.
Seventeen hours after injection cells were fixed and stained for β-galactosidase activity with X-Gal. Injected cells attached to the coverslip were scored as positive for cell death when they were highly condensed, small round cells.

COc1cccc(-c2cc(=O)c3ccccc3o2)c1N [PD #098059, reference compound]
effect on TNFα-mediated cell death / apoptosis (L929 cells): no effect on TNFα-mediated apoptosis | effect on the protective action of bFGF against TNFα-mediated cell death (L929 cells): inhibited the protective action of bFGF | effect on JNK activity (JNK): did not inhibit JNK kinase or the activation of JNK | effect on bFGF stimulation of MAPK activity (p42/p44 MAPK; L929 cells): inhibited bFGF stimulation of MAPK activity

N.N.[Cl][Pt][Cl] [cisplatin]
effect on full length MEKK1 protein (endogenous MEKK1 protein): induced the loss of full length MEKK1 | full length MEKK1 remaining after treatment (endogenous MEKK1 protein): no full length MEKK1 protein remaining

EGF: epidermal growth factor
time to peak Raf-B activity (Raf-B): 3 to 5 min | persistence of MEKK1 activation (MEKK1; EGF 30 ng/ml timecourse): at least 30 minutes | MEKK1 activity (MEKK1): increased MEKK1 activity | activation of c-Raf-1 (c-Raf-1): almost negligible

N17 Ras: HA-tagged inhibitory N17 Ras, IPTG-inducible in L929 cells [reference compound]
effect on TNFα-mediated cell death / apoptosis (L929 cells): did not affect TNFα induced apoptosis | effect on the protective action of bFGF against TNFα-mediated cell death (L929 cells): markedly inhibit the ability of bFGF to protect cells | effect on TNFα stimulation of JNK (JNK): no effect on TNF stimulation of JNK | effect on bFGF stimulation of MAPK activity (p42/p44 MAPK; L929 cells): significantly blunted bFGF stimulation of MAPK

NGF: growth factor used at 100 ng/ml on PC12 cells
MEKK1 activity (MEKK1): slight increase in MEKK1 activity | activation of c-Raf-1 (c-Raf-1): almost negligible

bFGF: recombinant human basic fibroblast growth factor (147aa)
effect on TNFα-mediated cell death / apoptosis (L929 cells): effective at blocking TNFα-mediated cell death | cell number (L929 cells; in the absence of TNFα): did not measurably increase cell number | effect on JNK activity (JNK): little or no effect on JNK activity | effect on TNFα stimulation of JNK (JNK): did not alter the magnitude of JNK activation | concentrations giving maximal stimulation of MAPK activity (p42/p44 MAPK): 0.25 to 0.5 ng/mL | MAPK activity (p42/p44 MAPK; L929 cells, TNFα 1 ng/ml where stated): robust activation of MAPK | C-Raf activation (C-Raf): activation of both B-Raf and C-Raf | B-Raf activation (B-Raf): activation of both B-Raf and C-Raf

beauvericin
apoptotic morphology [1]: cytoplasmic shrinkage (monitored by the anti-tubulin antibodies) and nuclear condensation

β-gal: expression plasmid encoding β-galactosidase, injected alone as control
injected cells with an altered morphology (Swiss 3T3 cells; 48-72 hours post-injection): < 1% | Condensed Cells (number) (Swiss 3T3 cells; Swiss 3T3 cells, 100 ng/μl plasmids, seventeen hours after injection, highly condensed, small round cells): 4 | Condensed Cells (%) (Swiss 3T3 cells; Swiss 3T3 cells, 100 ng/μl plasmids, seventeen hours after injection, percent of cells injected): 1%
